Test results taken from ChEMBL document CHEMBL1201862, “PubChem BioAssay data set” (2004).
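Briefly, cells in 96-well plates were exposed to five compound concentrations for 48 h, and endpoints were estimated by linear interpolation. GI50 marks 50% less growth.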 Activity calls are given as the source filed them. Cut-off read from the data, not from the text of the source: active = GI50 up to about 1.1 µM and inactive = higher.

Legend:
Test in all cases: inhibition of tumour cell growth, NCI panel, 48 h
786-0 = test system: 786-0
A498 = test system: A498
A549 = test system: A549
ACHN = test system: ACHN
BT-549 = test system: BT-549
CAKI-1 = test system: CAKI-1
CCRF-CEM = test system: CCRF-CEM
COLO 205 = test system: COLO 205
DU-145 = test system: DU-145
EKVX = test system: EKVX
HCC 2998 = test system: HCC 2998
HCT-116 = test system: HCT-116
HCT-15 = test system: HCT-15
HL-60 = test system: HL-60
HOP-62 = test system: HOP-62
HOP-92 = test system: HOP-92
HT-29 = test system: HT-29
Hs-578T = test system: Hs-578T
K562 = test system: K562
KM12 = test system: KM12
LOX IMVI = test system: LOX IMVI
M14 = test system: M14
MCF7 = test system: MCF7
MDA-MB-231 = test system: MDA-MB-231
MDA-MB-435 = test system: MDA-MB-435
MDA-N = test system: MDA-N
MOLT-4 = test system: MOLT-4
Malme-3M = test system: Malme-3M
NCI-H226 = test system: NCI-H226
NCI-H23 = test system: NCI-H23
NCI-H460 = test system: NCI-H460
NCI-H522 = test system: NCI-H522
NCI/ADR-RES = test system: NCI/ADR-RES
OVCAR-3 = test system: OVCAR-3
OVCAR-4 = test system: OVCAR-4
OVCAR-5 = test system: OVCAR-5
OVCAR-8 = test system: OVCAR-8
PC-3 = test system: PC-3
RXF 393 = test system: RXF 393
SF-268 = test system: SF-268
SF-295 = test system: SF-295
SF-539 = test system: SF-539
SK-MEL-28 = test system: SK-MEL-28
SK-MEL-2 = test system: SK-MEL-2
SK-MEL-5 = test system: SK-MEL-5
SK-OV-3 = test system: SK-OV-3
SN12C = test system: SN12C
SNB-19 = test system: SNB-19
SNB-75 = test system: SNB-75
SR = test system: SR
SW-620 = test system: SW-620
T47D = test system: T47D
TK-10 = test system: TK-10
U-251 = test system: U-251
UACC-257 = test system: UACC-257
UACC-62 = test system: UACC-62
UO-31 = test system: UO-31
IGROV-1 = test system: IGROV-1
RPMI-8226 = test system: RPMI-8226

Compound: CC1(C)CC(=O)c2c(nc3c4c([nH]c(-c5ccc(Br)cc5)c24)CC(C)(C)C3)C1
- GI50 (786-0): 22 µM (inactive)
- GI50 (A498): 13.6 µM (inactive)
- GI50 (A549): 29.6 µM (inactive)
- GI50 (ACHN): 42.7 µM (inactive)
- GI50 (BT-549): 35.8 µM (inactive)
- GI50 (CAKI-1): 50.4 µM (inactive)
- GI50 (CCRF-CEM): 16.9 µM (inactive)
- GI50 (COLO 205): 19.8 µM (inactive)
- GI50 (DU-145): 65.3 µM (inactive)
- GI50 (EKVX): 50.2 µM (inactive)
- GI50 (HCC 2998): 19.2 µM (inactive)
- GI50 (HCT-116): 36.3 µM (inactive)
- GI50 (HCT-15): 31.3 µM
- GI50 (HL-60): 43.3 µM (inactive)
- GI50 (HOP-62): > 100 µM (inactive)
- GI50 (HOP-92): 28.7 µM (inactive)
- GI50 (HT-29): 4.79 µM (inactive)
- GI50 (Hs-578T): 33 µM (inactive)
- GI50 (K562): 18.2 µM (inactive)
- GI50 (KM12): 33.4 µM (inactive)
- GI50 (LOX IMVI): 30.2 µM (inactive)
- GI50 (M14): 36.6 µM (inactive)
- GI50 (MCF7): 33 µM (inactive)
- GI50 (MDA-MB-231): 44 µM (inactive)
- GI50 (MDA-MB-435): 29.7 µM (inactive)
- GI50 (MDA-N): 40.3 µM (inactive)
- GI50 (MOLT-4): 13.8 µM (inactive)
- GI50 (Malme-3M): 49.1 µM (inactive)
- GI50 (NCI-H226): 40.8 µM (inactive)
- GI50 (NCI-H23): 52.1 µM (inactive)
- GI50 (NCI-H460): 37.8 µM (inactive)
- GI50 (NCI-H522): 23.6 µM (inactive)
- GI50 (NCI/ADR-RES): 33.7 µM (inactive)
- GI50 (OVCAR-3): 27.1 µM (inactive)
- GI50 (OVCAR-4): 30.7 µM (inactive)
- GI50 (OVCAR-5): 84.9 µM (inactive)
- GI50 (OVCAR-8): 49.8 µM (inactive)
- GI50 (PC-3): 22.4 µM (inactive)
- GI50 (RXF 393): 22.8 µM (inactive)
- GI50 (SF-268): 55.6 µM (inactive)
- GI50 (SF-295): 21.3 µM (inactive)
- GI50 (SF-539): 76.6 µM (inactive)
- GI50 (SK-MEL-28): 98.9 µM (inactive)
- GI50 (SK-MEL-2): 36.6 µM (inactive)
- GI50 (SK-MEL-5): 26.8 µM (inactive)
- GI50 (SK-OV-3): > 100 µM (inactive)
- GI50 (SN12C): 98.6 µM (inactive)
- GI50 (SNB-19): 70.3 µM (inactive)
- GI50 (SNB-75): 27.9 µM (inactive)
- GI50 (SR): 8.65 µM (inactive)
- GI50 (SW-620): 49.3 µM (inactive)
- GI50 (T47D): 23.2 µM (inactive)
- GI50 (TK-10): 61.1 µM (inactive)
- GI50 (U-251): 23.8 µM (inactive)
- GI50 (UACC-257): 66.7 µM (inactive)
- GI50 (UACC-62): 53.6 µM (inactive)
- GI50 (UO-31): 45.1 µM (inactive)

Compound: CCOC(=O)C(NCc1cccc(C(F)(F)F)c1)(NC(=O)c1ccccc1)C(F)(F)F (centres undefined)
- GI50 (786-0): 28.5 µM (inactive)
- GI50 (A549): 22.9 µM (inactive)
- GI50 (ACHN): 25.9 µM (inactive)
- GI50 (BT-549): 20.5 µM (inactive)
- GI50 (CAKI-1): 14.4 µM (inactive)
- GI50 (CCRF-CEM): > 100 µM (inactive)
- GI50 (COLO 205): 16.4 µM (inactive)
- GI50 (DU-145): 46.5 µM (inactive)
- GI50 (EKVX): 24.2 µM (inactive)
- GI50 (HCC 2998): 26.1 µM (inactive)
- GI50 (HCT-116): 28.5 µM (inactive)
- GI50 (HCT-15): 23.1 µM
- GI50 (HL-60): 86.9 µM (inactive)
- GI50 (HOP-62): 37.9 µM (inactive)
- GI50 (HOP-92): 27.2 µM (inactive)
- GI50 (HT-29): 19.6 µM (inactive)
- GI50 (Hs-578T): 47.1 µM (inactive)
- GI50 (IGROV-1): 23.7 µM (inactive)
- GI50 (K562): 26.7 µM (inactive)
- GI50 (KM12): 28.1 µM (inactive)
- GI50 (LOX IMVI): 19.9 µM (inactive)
- GI50 (M14): 27.8 µM (inactive)
- GI50 (MCF7): 43.3 µM (inactive)
- GI50 (MDA-MB-231): 11.5 µM (inactive)
- GI50 (MDA-MB-435): 24.3 µM (inactive)
- GI50 (MDA-N): 34 µM (inactive)
- GI50 (MOLT-4): 26.1 µM (inactive)
- GI50 (Malme-3M): 21.7 µM (inactive)
- GI50 (NCI-H226): 27.2 µM (inactive)
- GI50 (NCI-H23): 21.8 µM (inactive)
- GI50 (NCI-H522): 17.6 µM (inactive)
- GI50 (NCI/ADR-RES): 18.8 µM (inactive)
- GI50 (OVCAR-3): 22.8 µM (inactive)
- GI50 (OVCAR-4): 21.6 µM (inactive)
- GI50 (OVCAR-5): 71.1 µM (inactive)
- GI50 (OVCAR-8): 32.4 µM (inactive)
- GI50 (PC-3): 30.5 µM (inactive)
- GI50 (RPMI-8226): 9.1 µM (inactive)
- GI50 (RXF 393): 9.08 µM (inactive)
- GI50 (SF-268): 47.9 µM (inactive)
- GI50 (SF-295): 44.1 µM (inactive)
- GI50 (SF-539): 24.2 µM (inactive)
- GI50 (SK-MEL-28): 22.1 µM (inactive)
- GI50 (SK-MEL-2): 21.4 µM (inactive)
- GI50 (SK-MEL-5): 30.5 µM (inactive)
- GI50 (SK-OV-3): 78.3 µM (inactive)
- GI50 (SN12C): 31.2 µM (inactive)
- GI50 (SNB-19): 71.9 µM (inactive)
- GI50 (SNB-75): 27.4 µM (inactive)
- GI50 (SR): > 100 µM (inactive)
- GI50 (SW-620): 28.1 µM (inactive)
- GI50 (T47D): 22.2 µM (inactive)
- GI50 (TK-10): 30.1 µM (inactive)
- GI50 (U-251): 34 µM (inactive)
- GI50 (UACC-257): 18 µM (inactive)
- GI50 (UACC-62): 13.9 µM (inactive)
- GI50 (UO-31): 18.1 µM (inactive)
